Laboratory results: patent US20110212899A1, “Corneal Neuritogenesis Promoter Containing Pacap and Its Derivative” (priority 2004, published 2011)
Where no end group is shown, it is not given here.

Columns and labels:
[1] = tested on: excised rabbit lacrimal gland; test: Promoting effect on protein secretion from an excised lacrimal gland (2) (Test Example 5); format: cell-based; settings: 10^−7 M, incubated 60 minutes; p<0.05
Procedure: A lacrimal gland was excised from a rabbit and incubated in a solution containing PACAP27 or peptide 24, and changes in the amount of secreted protein were examined as lacrimal gland stimulating activity.
Japanese white rabbits with a body weight of 1.5 to 2.0 kg purchased from Fukusaki Rabbit warren were used. The animals were each put in separate cages placed in a room wherein a temperature of 23±3° C. and a humidity of 55±10% were kept and a light was on for 12 hours per day (lighting at 8:00 and lights-out at 20:00), and raised after arrival until the final day of the test. The animals were given 100 g of solid feed (Labo R Stock, Nosan Corporation) per day, and could freely have tap water.
PACAP27 and peptide 24 were used as test substances. Test substance solutions were prepared as follows. […]
The section sample in a stationary state was incubated in 0.5 mL of a fresh incubation solution at 37° C. for 20 minutes under a mixed gas atmosphere of 95% oxygen and 5% carbon dioxide. After completion of the incubation, the incubation solution was collected, and the protein amount in the solution was determined by using a protein staining reagent (DC Protein Assay Reagent, Bio Rad). […] The incubation solution was collected, and the protein amount in the incubation solution was determined. […]

[2] = tested on: rabbit eye (tear secretion); test: Promoting effect on tear secretion in a rabbit (Schirmer method, Test Example 6); format: in vivo; settings: 0.1% eye drops, 50 μL; from 20 minutes to 120 minutes after administration
Procedure: Changes in the tear amount when PACAP27 and peptide 24 were administered to the eyes of a rabbit were examined. Japanese white rabbits with a body weight of 1.5 to 2.0 kg purchased from Kitayama Labes Co., Ltd were used. The animals were each put in separate cages placed in a room wherein a temperature of 23±3° C. and a humidity of 55±10% were kept and a light was on for 12 hours per day (lighting at 8:00 and lights-out at 20:00), and raised after arrival until the final day of the test. The animals were given 100 g of solid feed (Labo R Stock, Nosan Corporation) per day, and could freely have tap water. PACAP27 and peptide 24 were used as test substances. […] The amount of tear secreted was measured at 8.5 minutes before administration, and at 10 minutes, 20 minutes, 30 minutes, 60 minutes and 120 minutes after the administration by a Schirmer method. […] After the tear in the lower eyelid conjunctival sac was wiped with filter paper, the amount of tear secreted in 1 minute was measured using a Schirmer's test strip (Showa Yakuhin Kako Co.). The difference between the tear secretion amount at each time point after administration of the eye drops and the tear secretion amount before administration of the eye drops was calculated as a change in the tear amount caused by the test substance. […]

Question: “His-Ser-Asp-Ala-Ile-Phe-Thr-Asp-Ser-Tyr-Ser-Arg-Tyr-Arg-Arg-Gln-Leu-Ala-Val-Arg-Arg-Tyr-Leu-Ala-Ala-Val-Leu-Gly-Arg-Arg-NH2 (HSDAIFTDSYSRYRRQLAVRRYLAAVLGRR-NH2) [Peptide 24]” was tested. Which “protein secretion rate of excised lacrimal gland compared with control group” value [1] did it give?
Answer: significant increase

Question: And the “tear secretion amount compared with vehicle solution-administration group” value [2]?
Answer: significant increase
